System: human iPS cell Toe strain
Assay: Effect to promote differentiation from human iPS cells into insulin-producing cells (insulin-positive cell rate, Reference Example 1)
Format: cell-based
Conditions: 10 μM; average of 30 cases; untreated control 4.9%
Text: The evaluation system of the effect (efficacy) to promote differentiation from human iPS cells into insulin-producing cells was constructed with reference to known information (Non Patent Document 6). Further, the medium used in each differentiation stage was also produced with reference to known information (differentiation media A to E (Media A to E) described in Non Patent Document 6 were used respectively for stages 1 to 5; however, a medium free from GLP-1 receptor agonist and nicotinamide was used as differentiation medium E).
In order to evaluate the efficacy of each compound, the compound of Synthesis Example 1 was used as a positive control, and dimethylsulfoxide (DMSO) (SIGMA, D2650) with a final concentration of 0.1% was used as a control untreated with compounds. Each compound was dissolved in DMSO, and two types of compound solutions were prepared so as to have final concentrations of 2 μM and 10 μM after the compound was added to the medium. In the following evaluation, the compound solutions were added to the medium to 0.1% that is the final concentration of DMSO.
First, induction from human iPS cell Toe strain (National Institutes of Biomedical Innovation, Health and Nutrition) into cells on day 7 of culture (2 days after replacement with differentiation medium C (cells in the differentiation process from FOXA2-positive primitive gut tube cells into PDX1-positive pancreatic progenitor cells)) was performed according to the method of Non Patent Document 6 for “inducing differentiation from human iPS cells into pancreatic β cells”, and the cells were collected and thereafter stored in liquid nitrogen using Bambanker (NIPPON Genetics Co, Ltd.) at 1×10^7 cells/mL/tube, to produce a cell stock for evaluation. The cell stock was dissolved at the start of the evaluation of efficacy, suspended in differentiation medium C for stage 3 (DMEM high glucose (Life technologies, 11965092), 0.25 μM SANT-1, 0.1 μM LDN193189 (Stemgent, 04-0074), 10 μM SB431542, 2 μM Retinoic acid (Stemgent, 04-0021), 1% B27 serum free supplement (Life technologies, 17504044) and thereafter seeded in a 96-well plate (Corning, #3340) coated with Synthemax II (Corning, #5656) at 1×10^5 cells/well. After culturing for 2 days, the medium was removed, and new differentiation medium C for stage 3 with the compound or only DMSO added was added thereto at 100 μL/well. After culturing for 2 days, the medium was removed, and new differentiation medium D for stage 4 (DMEM high glucose, 0.1 μM LDN193189, 5 μM TGF-β type I receptor kinase inhibitor II (Calbiochem 616452), 0.3 μM (−)-indolactam V (Enzo life science ALX-420-011-C300), 1% B27 serum free supplement) with the compound or only DMSO added was added thereto at 100 μL/well. After culturing for 2 to 3 days, the medium was removed, and new differentiation medium E for stage 5 (GLP-1 receptor agonist and nicotinamide-free; Knockout […] (Life technologies, 12660012), 1% B27 serum free supplement) with the compound or only DMSO added was added thereto at 200 μL/well. After culturing for 2 days, the medium was removed, and a 4% paraformaldehyde phosphorus acid buffer (Wako, 163-20145) was added thereto at 150 μL/well and left standing for 30 to 60 minutes at room temperature to fix the cells. A phosphorus acid buffer (PBS) (Takara, T9181) containing 1% Triton X-100 (Sigma, T8787) was left standing for 15 minutes at room temperature, then washed with PBS-T (Takara, T9183), and was blocked for 1 hour using 20% Blocking One (Nacalai tesque, Tokyo, Japan) diluted with PBS-T at room temperature. After the removal of Blocking One, guinea pig anti-insulin antibody (Abcam, ab7842) diluted 200-fold with 20% Blocking One was added thereto at 50 μL/well, followed by standing at 4° C. overnight. […]

O=C1CCC(C(=O)Nc2ncc(-c3ccccc3)s2)n2cccc21 (stereo not shown) [Synthesis Example 1, 8-Oxo-N-(5-phenylthiazol-2-yl)-6,7-dihydro-5H-indolizine-5-carboxamide]
average insulin-positive cell rate: 13%

— patent publication US20220339260A1, “METHOD FOR PRODUCING INSULIN-PRODUCING CELL USING DIHYDROINDOLIZINONE DERIVATIVES” (TOKYO INSTITUTE OF TECHNOLOGY, priority 2019, published 2022)
